Test results from PMC9704608, “Anti-leishmanial physalins—Phytochemical investigation, in vitro evaluation against clinical and MIL-resistant L. tropica strains and in silico studies” (PLOS ONE, 2022).
Read-outs that look alike come from different tables or passages of the source.

Assays:
L. major promastigotes = assay: Promastigote growth inhibition assay (MTT), L. major; assay type: cell-based, Leishmania major; details: for IC50: Leishmania major; for IC50 / L. major IC50 (μM± SD): 72 h; for anti-leishmanial activity against promastigotes of L. major (in words): in vitro
Method: (§1) L. major and L. tropica (Clinical isolates) promastigotes were grown at […] in RPMI-1640 (Sigma) medium containing 10% of heat-inactivated (56°C for 30 min) fetal bovine serum. Cell viability was initially evaluated by wet mount method by observing the live cells under compound microscope. Parasite growth was assessed by counting live / motile promastigotes in a Neubauer chamber. Viable cell count was used for the further experimentations (treatments).
(§2) The promastigotes in their log phase were used in 96-well plates. 1 × 10^6 wild-type and resistant promastigotes were dispensed in 96 96-well plates, and incubated with tested compounds at a range concentration of 200–10 μM at 27°C for 72 h. After incubation of 72 h, MTT dye (3-(4,5-dimethylthiazol-2-yl)-2,5-diphenyl-2H-tetrazolium bromide) was added and further incubate it for 3–4 h. Amphotericin B, pantamidine and miltefosine were used as the positive control, untreated promastigotes were used as negative control moreover DMSO control was also added in the study as a stock solution of the compounds that were prepared in DMSO. All the experiments were performed in triplicates. After completion of the experiment the absorbance by Multiskan ascent plate reader at 452 nm and percent inhibition was calculated by the following formula.
(§3) Cytotoxic concentration (%) = [100- (Absorbance of test)/ (Absorbance of solvent control) ×100] %.

[1] = Cytotoxicity (MTT) against BJ cell line; assay type: cell-based, human; details: pure compounds; human fibroblast, 48 h; read-out: BJ cell line CC50 (μM± SD)
Method: (§4) The cytotoxicity of the test compounds against normal cell lines was evaluated through MTT (3-[4, 5-dimethylthiazole-2-yl]-2, 5-diphenyl-tetrazolium bromide] colorimetric assay in 96-well flat-bottomed microplates. The 3T3 (mouse fibroblast) and BJ (human fibroblast) were cultured Dulbecco’s Modified Eagle Medium, supplemented with 5% of fetal bovine serum (FBS), 100 IU/mL of penicillin and 100 μg/mL of streptomycin in 75 cm2 flasks, and then incubated in 5% CO2 incubator at 37°C. The growing cells were counted by using a haemocytometer, and diluted with the particular medium. The 5x10^4 cells/mL of the cell culture was prepared, and a sample […] was introduced into each well. […] After 48 hours, 200 μL MTT (0.5 mg/mL) was added, and the incubation was further continued for 4 hrs. After that time, 100 μL of DMSO was added to each well. The absorbance was measured using a micro plate reader (Spectra Max Plus, Molecular Devices, CA, USA) at 570 nm for the extent of MTT reduction to formazan within the cells. The cytotoxicity was recorded as CC50 against cells by using Soft- Max Pro software. Doxorubicin and cycloheximide were used as positive control. The experiments were run in triplicate.

[2] = tested on: BJ (human fibroblast) cells; assay: Cytotoxicity (MTT) against BJ cell line; assay type: cell-based
Method: as §4

[3] = tested on: 3T3 (mouse fibroblast) cells; assay: Cytotoxicity (MTT) against 3T3 cell line; assay type: cell-based; details: for 3T3 Cell line CC50 (μM± SD): pure compounds, mouse fibroblast, 48 h
Method: (§5) The cytotoxicity of the test compounds against normal cell lines was evaluated through MTT (3-[4, 5-dimethylthiazole-2-yl]-2, 5-diphenyl-tetrazolium bromide] colorimetric assay in 96-well flat-bottomed microplates. The 3T3 (mouse fibroblast) and BJ (human fibroblast) were cultured Dulbecco’s Modified Eagle Medium, supplemented with 5% of fetal bovine serum (FBS), 100 IU/mL of penicillin and 100 μg/mL of streptomycin in 75 cm2 flasks, and then incubated in 5% CO2 incubator at 37°C. The growing cells were counted by using a haemocytometer, and diluted with the particular medium. The 5x10^4 cells/mL of the cell culture was prepared, and a sample […] was introduced into each well. The medium was removed after overnight incubation, and 200 μL of fresh medium was added with different concentrations of compounds (1–30 μM). After 48 hours, 200 μL MTT (0.5 mg/mL) was added, and the incubation was further continued for 4 hrs. After that time, 100 μL of DMSO was added to each well. The absorbance was measured using a micro plate reader (Spectra Max Plus, Molecular Devices, CA, USA) at 570 nm for the extent of MTT reduction to formazan within the cells. The cytotoxicity was recorded as CC50 against cells by using Soft- Max Pro software. Doxorubicin and cycloheximide were used as positive control. The experiments were run in triplicate.

[4] = Cytotoxicity (MTT) against 3T3 cell line; assay type: cell-based, mouse; details: pure compounds; mouse fibroblast, 48 h; read-out: 3T3 Cell line CC50 (μM± SD)
Method: as §5

L. tropica promastigotes = assay: Promastigote growth inhibition assay (MTT), L. tropica clinical isolates; assay type: cell-based, Leishmania tropica; details: for IC50: Leishmania tropica
Method: as §1, §2, §3

[5] = tested on: MIL-resistant L. tropica promastigotes; assay: Growth inhibition assay (MTT) against MIL-resistant line; assay type: cell-based, Leishmania tropica; details: 72 h; for MIL Resistant L. tropica IC50 (μM± SD): miltefosine-unresponsive strain, promastigotes
Method: as §2, §3
Promastigote cultures tL. tropica (Clinical isolates) were maintained at 26°C in RPMI-1640 medium containing 15% FBS and 1% penicillin–streptomycin mixture.
Generation of miltefosine-unresponsive strain was carried under high MIL pressure by in vitro passage with a stepwise increase in the MIL concentration. At each step, parasites were cultured and passaged every 3–4 days at an initial concentration of 5x10^5 promastigotes/mL in order to achieve -stable growth as compared to the wildtype isolate. Growth rates were measured for resistant populations and compared with the WT strain. Parasites were counted at an initial concentration of 5x10^5 parasites/mL and growth was measured daily using a Neubauer chamber until the population reached the stationary phase. Furthermore, the fluorescence microscopic investigations via DAPI stain were also carried out to supplement the study.

[6] = pure compounds, standard drugs, promastigotes, read-out: L. major IC50 (μM± SD)
[7] = pure compounds, standard drugs, promastigotes, clinical isolate, 72 h, read-out: L. tropica IC50 (μM± SD)
[8] = 72 h, read-out: L. tropica IC50 (μM± SD)
[9] = pure compounds, standard drugs, promastigotes
[10] = extracts, fractions, standard drugs, promastigotes, read-out: L. major IC50 (μg/ml ± SD)
[11] = extracts, fractions, standard drugs, promastigotes, 72 h, read-out: L. tropica IC50 (μg/ml ± SD)

With `CC12CC3OC(=O)C1COC14OC5(C2C1=O)C(O)(CCC1C4CC(O)C2(Cl)CC=CC(=O)C12C)C(=O)OC35C` (stereo not shown) [Compound 5, Physalin H] the “L. major SI (CC50/ IC50)” value (L. major promastigotes; CC50 3T3 mouse fibroblast cell line / IC50 L. major) was 0.119, the “L. major SI (CC50/ IC50)” value (L. major promastigotes; CC50 BJ fibroblast cell line / IC50 L. major) was 3.11 and the IC50 (L. major promastigotes; [6]) was 3.34 ± 0.64 µM. For the same compound, the CC50 [1] was 10.4 ± 1 µM, the “L. tropica SI (CC50/ IC50)” value ([2]; CC50 BJ cell line / IC50 L. tropica) was 1.08 and the IC50 ([2]; Homo sapiens, Fibroblast, cytotoxicity of compounds 1-9, read-out: BJ (human fibroblast) IC50 (μM± SD)) was 14.2 ± 0.8 µM. For the same compound, the “L. tropica SI (CC50/ IC50)” value ([3]; CC50 3T3 cell line / IC50 L. tropica) was 0.041, the IC50 ([3]; Mus musculus, Fibroblast, cytotoxicity of compounds 1-9, read-out: 3T3 (mouse fibroblast) IC50 (μM ± SD)) was 0.4 ± 0.07 µM and the CC50 [4] was 0.4 ± 0.07 µM. For the same compound, the “L. tropica SI (CC50/ IC50)” value (L. tropica promastigotes; CC50 3T3 mouse fibroblast cell line / IC50 L. tropica) was 0.041, the “L. tropica SI (CC50/ IC50)” value (L. tropica promastigotes; CC50 BJ fibroblast cell line / IC50 L. tropica) was 1.08 and the IC50 (L. tropica promastigotes; [7]) was 9.59 ± 0.27 µM. For the same compound, the “MIL Resistant L. tropica IC50 (μM± SD)” value [5] was “inactive”.

With `C[C@]12C(=O)C=CC=C1[C@@H](O)C[C@@H]1[C@@H]2CC[C@@]2(O)C(=O)O[C@@]3(C)[C@H]4C[C@]5(C)[C@@H](CO[C@@]16O[C@]23[C@H]5C6=O)C(=O)O4` [Compound 7, Physalin G] the IC50 (L. major promastigotes; read-out: L. major IC50 (μM± SD)) was 52.3 ± 1.18 µM, the “anti-leishmanial activity against promastigotes of L. major (in words)” value (“anti-leishmanial activity” below) (L. major promastigotes) was “no significant activity” and the CC50 at 48 h [1] was > 100 µM. For the same compound, the “BJ (human fibroblast) IC50 (μM± SD)” value ([2]; cytotoxicity of compounds 1-9) was “Non cytotoxic”, the “3T3 (mouse fibroblast) IC50 (μM ± SD)” value ([3]; cytotoxicity of compounds 1-9) was “Non cytotoxic” and the “3T3 Cell line CC50 (μM± SD)” value [3] was “Non cytotoxic”. It also gave an IC50 (L. tropica promastigotes; [8]) of 19.49 ± 0.02 µM and an IC50 ([5]; Leishmania tropica, read-out: MIL Resistant L. tropica IC50 (μM± SD)) of 39.4 ± 0.65 µM.

With `CC12CC3OC(=O)C1COC14OC5(C2C1=O)C(O)(CC(O)C1C4CC(O)C24C=CC(OO2)C(=O)C14C)C(=O)OC35C` (stereo not shown) [Compound 8, Physalin K] the “anti-leishmanial activity” value (L. major promastigotes) was “no significant activity”, the “L. major IC50 (μM± SD)” value (L. major promastigotes; [9]) was “inactive” and the CC50 [1] was > 100 µM. The “BJ (human fibroblast) IC50 (μM± SD)” value ([2]; cytotoxicity of compounds 1-9) was “Non cytotoxic”, the “3T3 (mouse fibroblast) IC50 (μM ± SD)” value ([3]; cytotoxicity of compounds 1-9) was “Non cytotoxic” and the “3T3 Cell line CC50 (μM± SD)” value [3] was “Non cytotoxic”. The “L. tropica IC50 (μM± SD)” value (L. tropica promastigotes; pure compounds, standard drugs, promastigotes, clinical isolate, 72 h) was “inactive” and the “MIL Resistant L. tropica IC50 (μM± SD)” value [5] was “inactive”.

In the case of `C[C@@]12C[C@H]3OC(=O)[C@@H]1CO[C@@]14O[C@]5([C@H]2C1=O)[C@@](O)(CC[C@H]1[C@H]4C[C@@H](O)[C@@]2(O)CC=CC(=O)[C@]12C)C(=O)O[C@@]35C` [Compound 9, Physalin D], the “anti-leishmanial activity” value (L. major promastigotes) is reported as “no significant activity”, the “L. major IC50 (μM± SD)” value (L. major promastigotes; [9]) is reported as “inactive” and the CC50 at 48 h [1] is reported as > 100 µM. For the same compound, the “BJ (human fibroblast) IC50 (μM± SD)” value ([2]; cytotoxicity of compounds 1-9) was “Non cytotoxic”, the “3T3 (mouse fibroblast) IC50 (μM ± SD)” value ([3]; cytotoxicity of compounds 1-9) was “Non cytotoxic” and the “3T3 Cell line CC50 (μM± SD)” value [3] was “Non cytotoxic”. For the same compound, the IC50 (L. tropica promastigotes; [8]) was 55.24 ± 0.01 µM and the “MIL Resistant L. tropica IC50 (μM± SD)” value [5] was “inactive”.

With `CCCCCCCCCCCCCCCCOP(=O)([O-])OCC[N+](C)(C)C` [Miltefosine, reference compound] the IC50 (L. major promastigotes; [10]) was 10.4 ± 0.42 µg/mL, the IC50 (L. major promastigotes; [6]) was 25.6 ± 1.03 µM and the “BJ cell line CC50 (μM± SD)” value ([2]; pure compounds, human fibroblast, 48 h) was “non-toxic”. It also gave an IC50 (L. tropica promastigotes; [11]) of 17.4 ± 0.42 µg/mL and an IC50 (L. tropica promastigotes; [7]) of 42.8 ± 1.03 µM.

Work on `N=C(N)c1ccc(OCCCCCOc2ccc(C(=N)N)cc2)cc1` [Pentamidine, reference compound] yielded an IC50 (L. major promastigotes; [10]) of 9.25 ± 0.005 µg/mL, an IC50 (L. major promastigotes; [6]) of 27.2 ± 0.015 µM and an IC50 (L. tropica promastigotes; [11]) of 9.25 ± 0.005 µg/mL. It also gave an IC50 (L. tropica promastigotes; [7]) of 27.2 ± 0.01 µM.
